Test results published in patent publication US20150315188A1, “COMPOUNDS AND METHODS FOR TREATMENT OF HYPERTENSION” (MEDIVATION TECHNOLOGIES, INC., priority 2012, published 2015).

How the values were obtained:
[1] = Stability in the presence of human hepatocytes; format: in vitro ADME; details: both sexes, human, cryopreserved hepatocytes, pH 7.4, human hepatocytes, 37° C., average of duplicates, ^a = 0-120 minute time points, read-out: T1/2 Human
Protocol: (§1) Compounds of the invention were tested for stability in the presence of dog, rat and human hepatocytes over a 4 hour period by LC/MS/MS. The study was performed by Integrated Analytical Solutions, Berkeley, Calif.
(§2) Reference Standards and Solutions: Compounds of the invention were stored as powders at ambient temperature in a desiccator and protected from light. Reference stock solutions of Compound Nos. 50a, 50b, 79a, 82, 91a and 178d, as 20 mM in DMSO were prepared and subsequently diluted to 2 mM in MeOH to provide working stock solutions (WSS). Unused standard solutions were stored at −20° C.
(§3) Hepatocyte Preparation: Human (mixed gender), Beagle dog (male) and Sprague Dawley rat (male) cryopreserved hepatocytes were purchased from Life Technologies Corporation. Hepatocytes were removed from liquid nitrogen, quickly thawed in a 37° C. water bath and transferred to Hepatocyte Thawing/Plating Medium (Cryopreserved Hepatocyte Recovery Medium, CHRM, Life Technologies Inc.). The cells were pelleted by slow speed centrifugation (˜100×g, 6 min) and resuspended at a high cell density. Hepatocyte viability was determined by trypan blue exclusion. Hepatocyte incubation medium (Life Technologies, Inc.) was added to generate a cell density of 2.0×10^6 cells/mL.
(§4) Hepatocyte Incubations for Stability: The 2 mM WSS was diluted 1 in 200 in hepatocyte incubation medium (pH 7.4) to 10 μM. A solution containing control compounds was prepared similarly to contain 10 μM each of dextromethorphan and testosterone. The solutions of test compounds and controls at 10 μM in hepatocyte incubation medium were pre-incubated at 37° C. for 10 min. Aliquots (250 μL) of hepatocyte suspensions (at 2.0×10^6 cells/mL) were transferred to appropriate 48-well plates and pre-incubated at 37° C. for 10 minutes. Metabolism was initiated by adding 250 μL pre-incubated medium (containing test drug) to wells containing cells. A negative control reaction excluding hepatocytes was used to monitor aqueous stability and/or non-specific adsorption. The final reaction mixtures contained 5 μM of test or control compound and 1.0×10^6 cells/mL. All reactions were performed in duplicate and carried at 37° C. in an incubator. Dextromethorphan and testosterone were used as control drugs to verify hepatocyte activity.
(§5) Aliquots were removed from each metabolism reaction at 0, 0.5, 2 and 4 hours. The reactions were terminated by adding each aliquot to a vessel containing 2× volumes (80 μL) of Internal Standard Solution (acetonitrile containing 50 ng/mL 2-(2,8-dimethyl-3,4-dihydro-1H-pyrido[4,3-b]indol-5(2H)-yl)-1-(pyridin-4-yl)ethanol (ISS1), 50 ng/mL of 2-(2,8-dimethyl-3,4-dihydro-1H-pyrido[4,3-b]indol-5(2H)-yl)-1-(piperidin-1-yl)ethanone (ISS2) and 5 ng/mL diphenhydramine. Terminated reactions were centrifuged at 6000 g for 30 mins at 4° C. to remove the precipitated proteins and cell debris. Following centrifugation, 20 μL of each supernatant was transferred to a deep-well microplate and diluted with 5× volumes (100 μL) of 0.2% formic acid in water. Compound 178d samples were diluted with 5× volumes (100 μL) of 0.1% HFBA in water. Samples were analyzed by LC/MS/MS.
(§6) Calculation of Metabolism Parameters: Percent remaining was measured by dividing the analyte/IS peak area ratio at the designated sample time by the peak area ratio at time 0. ISS1 served as the IS for Compound No. 178d. ISS2 served as the IS for Compound nos. 50a, 50b, 79a, 82 and 91a. The metabolic half-life (T1/2) was calculated using all time points unless otherwise noted. The T1/2 values were calculated as 0.693/k, where k is the slope of the log analyte/internal standard peak area ratio versus time. Metabolism rate was calculated by dividing the starting concentration of substrate by the concentration of hepatocytes, then dividing by the T1/2 value.

[2] = Stability in the presence of dog hepatocytes; format: in vitro ADME, Beagle dog; details: male, Beagle, dog, cryopreserved hepatocytes, pH 7.4, dog hepatocytes, 37° C., average of duplicates, ^a = 0-120 minute time points, read-out: T1/2 Dog
Protocol: as §1, §2, §3, §4, §5, §6

[3] = Stability in the presence of rat hepatocytes; format: in vitro ADME, Sprague Dawley rat; details: male, Sprague Dawley, rat, cryopreserved hepatocytes, pH 7.4, rat hepatocytes, 37° C., average of duplicates, ^a = 0-120 minute time points, read-out: T1/2 Rat
Protocol: as §1, §2, §3, §4, §5, §6

[4] = molecular target: T1, Human adrenergic α2B receptor (Homo sapiens, UniProt P18089); assay: Radioligand binding, adrenergic α2B (Protocol Group A); set-up: expressed in transfected cells; host or cells: CHO-K1; details: 0.03 μM compound, [3H]Rauwolscine, read-out: percent inhibition of specific binding, Adrenergic α2B
T1 sequence (P18089 1-450): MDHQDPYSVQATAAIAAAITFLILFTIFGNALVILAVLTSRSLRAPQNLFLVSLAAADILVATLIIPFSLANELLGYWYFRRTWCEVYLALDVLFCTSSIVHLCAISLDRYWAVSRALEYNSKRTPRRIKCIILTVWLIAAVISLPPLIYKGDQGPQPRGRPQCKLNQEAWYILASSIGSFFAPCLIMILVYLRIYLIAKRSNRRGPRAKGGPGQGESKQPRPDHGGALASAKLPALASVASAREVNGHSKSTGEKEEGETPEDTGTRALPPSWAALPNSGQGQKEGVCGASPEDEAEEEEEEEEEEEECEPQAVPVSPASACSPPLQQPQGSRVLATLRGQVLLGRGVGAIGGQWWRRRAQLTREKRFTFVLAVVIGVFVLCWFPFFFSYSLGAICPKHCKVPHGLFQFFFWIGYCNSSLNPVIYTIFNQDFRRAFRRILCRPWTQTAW
Protocol: To evaluate in radioligand binding assays the activity of compounds of the invention, human recombinant adrenergic α2B receptor expressed in Chinese hamster ovary (CHO) K1 cells (Uhlen, S. et al, Eur. J. Pharmacol. 343(1):93, 1998) in a modified Tris-HCl buffer (50 mM Tris-HCl, pH 7.4, 12.5 mM MgCl2, 1 mM EDTA, 0.2% BSA) was used. Compounds of the invention were incubated with 2.5 nM [3H]Rauwolscine for 60 min at 25° C. Non-specific binding was estimated in the presence of 10 μM Prazosin. Receptor proteins were filtered and washed, the filters were then counted to determine [3H]Rauwolscine specifically bound. Compounds were screened at 1 μM or lower, using 1% DMSO as vehicle. Compounds of the invention were tested in this biochemical assay and percent inhibition of specific binding was determined. Biochemical assay results are presented as the percent inhibition of specific binding in Table B1a.

Compound | half-life at 5 µM [1] [h] | half-life at 5 µM [2] [h] | half-life at 5 µM [3] [h] | inhibition at 0.03 µM [4] [%]
Cc1ccc2c(c1)c1c(n2CC(O)c2ccncc2)CCN2CCCC12 (single isomer, unassigned) [Compound No. 178d] | 2.23 | 4 | > 4 | –
Cc1ccc2c(c1)c1c(n2CC(C)(O)c2ccc(F)nc2)CCN2CCCC12 (single isomer, unassigned) [6a] | – | – | – | 107
Cc1cc(F)c2c(c1)c1c(n2CC(C)(O)c2cccnc2)CCN2CCCC12 (centres unmarked) [Compound No. 79a] | > 4 | 3.02 | 3.5 | –
Cc1ccc2c(c1)c1c(n2C[C@@H](OC2CCCC2)c2ccncc2)CCN2CCC[C@H]12 [compound 82, (11cR)-7-[(25)-2-(cyclopentoxy)-2-(4-pyridyl)ethyl]-10-methyl-1,2,3,5,6,11c-hexahydroindolizino[7,8-b]indole] | 0.817 | 0.8 | 0.767 | –

More lines, now with the values ahead:

half-life at 5 µM [1] [h] | half-life at 5 µM [2] [h] | half-life at 5 µM [3] [h] | inhibition at 0.03 µM [4] [%] | Compound
2.3 | 1.37 | 2.82 | – | Cc1cc(Cl)c2c(c1)c1c(n2CC(C)(O)c2ccncc2)CCN2CCCC12 (single isomer, unassigned) [91a]
1.92 | 2.03 | 2.43 | – | Cc1cc2c3c(n(CC(C)(O)c4ccncc4)c2cc1Cl)CCN1CCCC31 (single isomer, unassigned) [50a]
– | – | – | 86 | Cc1ccc2c(c1)c1c(n2CC(OC(=O)N2CCCC2)c2ccncc2)CCN(C)C1 (single isomer, unassigned) [4b]
